We go through 29 compounds from ChEMBL document CHEMBL1201862, “PubChem BioAssay data set” (2004).

Test systems include Hs-578T; LXFL 529; M19-MEL; KM-20L2; DMS-273; DLD-1; XF498; HOP-18.
What all share (test): NCI-60 cell line screen, 48 h

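48-hour exposure; five concentrations; linearly interpolated endpoints. At the GI50, growth is halved.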 The source made the active and inactive calls. No stated cut-off is given here; in the data, active = GI50 up to about 1.1 µM and inactive = higher. Non-standard residues stand in square brackets, D forms with d. Residues, ends and D or L forms follow the SMILES beside them. ξ: configuration not given here. *: point of attachment. ξF = NC(Cc1ccccc1)C(=O)O; Cbz = O=C(OCc1ccccc1)*

`O=C(O)c1ccc(CI)cc1`: the GI50 in the assay with Hs-578T was 41 µM (inactive).

On to `O=C(CCN1CCCCC1CO)Nc1ccc2c(c1)C(=O)c1ccc(NC(=O)CCN3CCCCC3CO)cc1C2=O` (stereo not drawn), for which the GI50 is 2.34 µM (inactive) with LXFL 529, 15.8 µM (inactive) in the assay on M19-MEL, 25.6 µM (inactive) with KM-20L2 and 5.16 µM (inactive) in the assay with DMS-273.

As to `CC(=O)c1sc(-c2nc(C)c(C(=O)/C=C\c3ccc(/C=C\C(=O)c4sc(-c5nc(C)c(C(C)=O)s5)nc4C)cc3)s2)nc1C`, the GI50 with LXFL 529, in the assay with DLD-1, in the assay on XF498, in the assay with M19-MEL, in the assay on HOP-18 and with KM-20L2 was > 100 µM (inactive) throughout. The GI50 in the assay with DMS-273 is > 100 µM (inactive).

On to `CCC/N=C/c1c(O)c(O)c(C(C)C)c2cc(C)c(-c3c(C)cc4c(C(C)C)c(O)c(O)c(/C=N/CCC)c4c3O)c(O)c12`, for which the GI50 in the assay with LXFL 529 was 3.73 µM (inactive); with M19-MEL, 4.05 µM (inactive); with Hs-578T it was 69.3 µM (inactive); with KM-20L2, 2.86 µM (inactive).

Consider `CCCCn1c2ccccc2c2ccc3c(c21)C(=O)C=CC3=O`, for which the GI50 is > 100 µM (inactive) in the assay with LXFL 529; > 100 µM (inactive) in the assay with DLD-1; 0.185 µM (active) in the assay with M19-MEL; > 100 µM (inactive) in the assay on HOP-18; > 100 µM (inactive) in the assay with KM-20L2; > 100 µM (inactive) in the assay on DMS-273.

Consider `CCCOC(=O)C1CCC(=O)N1C(=O)C(Cl)Cl` (stereo not drawn), for which the GI50 in the assay on LXFL 529, with DLD-1, in the assay with XF498, in the assay on M19-MEL, with HOP-18 and with KM-20L2 was > 100 µM (inactive) throughout. Besides, the GI50 with DMS-273 was > 100 µM (inactive).

For `Cc1ccc(-c2cc(=O)c3cc(C)c(C)c(C(=O)O)c3o2)cc1[N+](=O)[O-]`, the GI50 in the assay on LXFL 529, in the assay with DLD-1, with M19-MEL, in the assay on HOP-18, with KM-20L2 and with DMS-273 was > 100 µM (inactive) each time.

For `O=C(CCN1CCCC1)CC(c1ccccc1)c1c(O)c2ccccc2oc1=O` (stereo not drawn), the GI50 with LXFL 529, in the assay with DLD-1, in the assay with XF498, in the assay on M19-MEL, in the assay on KM-20L2 and with DMS-273 was > 100 µM (inactive) each time.

In the case of `O=C(NCCCCCCNC(=O)n1cc(F)c(=O)[nH]c1=O)NCCCOCCOCCOCCOCCOCCOCCOCCOCCOCCOCCOCCOCCOCCOCCOCCOCCOCCOCCOCCOCCOCCCNC(=O)C(O)C(O)C(O)C(O)CO` (stereo not drawn), the GI50 in the assay on DLD-1 was 9.33 µM (inactive); in the assay with XF498 it was 15.6 µM (inactive); in the assay on M19-MEL, 61.7 µM (inactive); in the assay on HOP-18, > 100 µM (inactive); in the assay on Hs-578T, 61.8 µM (inactive); in the assay on KM-20L2 it was 22.5 µM (inactive). The GI50 with DMS-273 is 33.3 µM (inactive).

With `O=c1cc(N2CCN(c3cc(=O)n4ccccc4n3)CC2)oc2ccccc12`, the GI50 in the assay on Hs-578T is 36.2 µM (inactive).

`COC(=O)c1cc2c(cc1Cl)Sc1nnc(Nc3ccccc3)n1S2(=O)=O`: the GI50 in the assay with Hs-578T is 3.1 µM (inactive).

For the compound `CCCCCCCCCCCC(=O)Oc1c(Cl)cc(Cl)c(OC(=O)C(=O)Oc2c(Cl)cc(Cl)c(OC(=O)CCCCCCCCCCC)c2Cl)c1Cl`, in the assay with Hs-578T, the GI50 was > 100 µM (inactive).

Regarding `O=C1CS(=O)(=O)C(c2cccc(Oc3ccccc3)c2)N1C1CC1` (stereo not drawn), the GI50 in the assay with Hs-578T was > 100 µM (inactive).

`Clc1ccc(CCNC2(c3cc4ccccc4s3)CCCCC2)cc1Cl`: the GI50 in the assay on Hs-578T was 42.5 µM (inactive).

In the case of `N#CN=C(NCc1ccccc1)NCc1ccccc1`, the GI50 is > 92 µM (inactive) in the assay with LXFL 529; > 47.4 µM (inactive) in the assay on DLD-1; > 77.1 µM (inactive) in the assay on XF498; > 54.7 µM (inactive) in the assay with M19-MEL; > 100 µM (inactive) in the assay with HOP-18; > 100 µM (inactive) with KM-20L2. Moreover, the GI50 with DMS-273 was > 41.9 µM (inactive).

With `Cc1nc2ccccc2n1CCc1nc2ccccc2s1`, in the assay with Hs-578T, the GI50 was 53.6 µM (inactive).

Regarding `COC(=O)C1=C([C@H]2COC(C)(C)O2)[C@H]2C[C@@H]1[C@@H]1OC(C)(C)O[C@@H]12`, in the assay with Hs-578T, the GI50 was > 100 µM (inactive).

As for `O=C1C[C@@H]2[C@@H](CCC23CC3)N1`, the GI50 in the assay with LXFL 529, in the assay with DLD-1, in the assay with M19-MEL, in the assay on HOP-18, in the assay with KM-20L2 and in the assay on DMS-273 was > 100 µM (inactive) throughout.

On to `COC(=O)C(C(=O)C(=O)Nc1ccc([N+](=O)[O-])cc1[N+](=O)[O-])c1nc2ccc(Cl)cc2nc1O` (stereo not drawn), for which the GI50 is > 100 µM (inactive) in the assay on DLD-1; > 100 µM (inactive) with XF498; > 100 µM (inactive) with M19-MEL; 59.3 µM (inactive) with HOP-18; > 100 µM (inactive) with KM-20L2; > 100 µM (inactive) with DMS-273.

As to `Cc1ccccc1SC(/C=C/NNC1=NN=C(c2ccccc2)C(c2ccccc2)N1)c1ccccc1` (stereo not drawn), the GI50 is 37.5 µM (inactive) with DLD-1; 34.7 µM (inactive) in the assay on XF498; 26 µM (inactive) with M19-MEL; 52 µM (inactive) in the assay on KM-20L2; 35.7 µM (inactive) in the assay with DMS-273.

Take `O=C(O)OC12CCCCCC1C(=O)C1CCCCC12` (stereo not drawn): the GI50 in the assay with LXFL 529 is > 100 µM (inactive); in the assay with XF498, 82.6 µM (inactive); in the assay on M19-MEL, > 100 µM (inactive); in the assay on HOP-18, > 100 µM (inactive); with KM-20L2, > 100 µM (inactive); in the assay on DMS-273, 62.5 µM (inactive).

Turning to `O=C(CSCC(=O)N/N=C\c1ccc(O)c(O)c1O)N/N=C\c1ccc(O)c(O)c1O`, the GI50 in the assay with Hs-578T was 30.8 µM (inactive).

For `[O-][n+]1onc2c1/C(=N/O)CCC2`, the GI50 in the assay on Hs-578T is > 100 µM (inactive).

For the compound `O=C1OC(c2ccccc2)=N/C1=C\c1cccc2ccccc12`, the GI50 with LXFL 529, in the assay on DLD-1, in the assay on XF498, in the assay with M19-MEL, in the assay with HOP-18 and with DMS-273 was > 100 µM (inactive) in each case.

In the case of `CCOC(=O)c1nc2ccc(C(F)(F)F)cc2nc1Nc1ccc(OC)cc1`, in the assay with Hs-578T, the GI50 was 35.2 µM (inactive).

For `COC(=O)[C@@]12C(=O)CCC(=O)C1C1C(=CC2C)O[C@@H]2OC3(CCCCC3)O[C@H]12` (stereo partly drawn), the GI50 in the assay on LXFL 529 was 44.5 µM (inactive); in the assay on DLD-1, 58.3 µM (inactive); with XF498, > 38.4 µM (inactive); in the assay with M19-MEL it was 61.9 µM (inactive); in the assay on HOP-18, > 64.3 µM (inactive); in the assay with KM-20L2, > 100 µM (inactive). The GI50 in the assay with DMS-273 is > 100 µM (inactive).

`C=C(CC(NC(=O)c1ccc(C(CC)Cc2cnc3nc(N)nc(N)c3n2)cc1)C(=O)O)C(=O)O` (stereo not drawn): the GI50 was 0.00239 µM (active) in the assay on LXFL 529; 0.000574 µM (active) in the assay with DLD-1; 0.0429 µM (active) in the assay with HOP-18; 0.01 µM (active) in the assay on KM-20L2; 0.000644 µM (active) in the assay with DMS-273.

Regarding `CCOC(=O)CNC(=O)C(Cc1ccccc1)NC(=O)OCc1ccccc1` (stereo not drawn) (Cbz-[ξF]-Gly-OEt), the GI50 with Hs-578T is 70.8 µM (inactive).

Turning to `Cc1cc(O)c2c3c(ccc2c1)C(=O)c1c(O)cccc1C3=O` [TETRANGULOL], in the assay on Hs-578T, the GI50 was > 40.9 µM (inactive).
